This note sets out measurements from US6864251B2, “Treatment of LTB4-mediated inflammatory disorders with optically-pure (R)-2,3-benzodiazepines” (Vela Pharmaceuticals, Inc., priority 2002, dated 2005).

Where “and” joins values, the source holds several entries; their conditions need not be identical. Identical values can stand only once.

In experiment [1] the test system is LTB4-induced dermal inflammation. As to the kind of experiment: Rabbit model of LTB4-induced dermal inflammation, histopathology of intradermal challenge sites. As to conditions: test article IP 60 mg/kg (dexamethasone 0.5 mg/kg); for Inflammation score / Edema score: 4 hr after challenge; for Histopathology finding: reduction of inflammation and edema: summary in words. The arrangement: key to Inflammation score / Edema score: 0=normal; T=trace; 1=minimal; 2=mild; 3=moderate; 4=marked. In kind it is in vivo, New Zealand White Rabbits. On the procedure: Test compounds were prepared as follows. The vehicle was first prepared by dissolving […] of hydroxypropylmethylcellulose 2910 (HPMC)(Sigma Chemical, St. Louis, Mo.) in 50 mL of 0.9% saline to yield a concentration of 2% HPMC. The three test articles, (R)-, (S)- and racemic tofisopam, were formulated by adding 1 g of each test article to 10 mL of vehicle.
On Day 0, the rabbits were sedated with ketamine/xylazine (35/5 mg/kg, s.c.) and an area of approximately 8×14 cm on the back was closely and carefully clipped to expose the skin, but not inflame or otherwise damage the epithelium. A grid of ten squares each approximately 2.5×2.5 cm was drawn on each animal's back using an indelible marker. The animals were then dosed intraperitoneally with the appropriate test article corresponding to the group. Thirty minutes after dosing with test or control article, the animals were challenged intradermally with the LTB4 or LTB4-aminopropamide (LTB4-AP, a synthetic LTB4 agonist) in the appropriate site as shown in Table 4. Each injection site was marked with an indelible marker in order to identify the exact location of the intradermal injection site. Sixty minutes after challenge, the animals were treated again with tofisopam or control articles. The animals were sacrificed 4 hrs. after challenge, and the intradermal injection sites were excised, fixed in 10% neutral buffered formalin (NBF), and submitted for histopathology. H&E-stained sections were read by a board-certified veterinary pathologist using light microscopy.
All animals were sacrificed 4 hr after challenge. The intradermal challenge sites were excised, placed on unique cardboard squares, fixed in 10% NBF, and submitted for histopathology. The skin sections included the epidermis and the subcutis, down to the back musculature.
The marked skin sections were fixed for at least 48 hours on small cardboard squares. At gross trimming, three levels were cut through marked skin region in order to assure that the injection sites is brought into the plane of section. The skins were gross trimmed, processed by dehydration, embedded in paraffin, sectioned at 3-5 μm, and stained with hematoxylin and eosin.
The tissues were evaluated histopathologically via light microscopy by a board-certified veterinary pathologist. Initially, the identity of the slides was masked in order to perform the initial evaluation and rank the slides. The slides were then unmasked and there was a careful assessment of the lesions and careful comparison of the tofisopam-treated sites to the vehicle and positive control tissues. The lesions were graded based upon the degree of inflammation and the degree of edema. The severity of the inflammation and edema was keyed as follows: 0=normal; T=trace; 1=minimal; 2=mild; 3=moderate; 4=marked.

For experiment [2], the target named is LTB4 receptor (Cavia porcellus, UniProt H0VYV8). As to the kind of experiment: LTB4 binding assay, displacement of [3H]LTB4, guinea pig spleen membrane. On the technique in general: In a radioligand displacement assay an active substance lowers the binding of a labelled ligand.
Method: Reactions were carried out in a phosphate buffer (pH 7.4) containing NaCl, MgCl2, EDTA, and bacitracin. The reaction volume of 150 μL containing 1.0 mg/mL of the Guinea pig spleen membrane preparation and 1 nM [^3H]LTB4, with or without a competitor, was incubated at 0-4° C. for 2 hours. Competitors included 2,3-benzodiazepines, and LTB4 as a control. The reaction was terminated by rapid vacuum filtration onto glass fiber filters. The filter was washed with cold buffer, dried and placed in a scintillation vial. Radioactivity trapped onto the filters was determined and compared to control values in order to ascertain any interactions of the test compound with the LTB4 binding site.
Where [3] appears, read: injection site: LTB4 2000 ng, listed as (R,S)-tofisopam.
Where [4] appears, read: injection site: LTB-ap 2000 ng, listed as (R,S)-tofisopam.

Chain of LTB4 receptor (H0VYV8 1-348): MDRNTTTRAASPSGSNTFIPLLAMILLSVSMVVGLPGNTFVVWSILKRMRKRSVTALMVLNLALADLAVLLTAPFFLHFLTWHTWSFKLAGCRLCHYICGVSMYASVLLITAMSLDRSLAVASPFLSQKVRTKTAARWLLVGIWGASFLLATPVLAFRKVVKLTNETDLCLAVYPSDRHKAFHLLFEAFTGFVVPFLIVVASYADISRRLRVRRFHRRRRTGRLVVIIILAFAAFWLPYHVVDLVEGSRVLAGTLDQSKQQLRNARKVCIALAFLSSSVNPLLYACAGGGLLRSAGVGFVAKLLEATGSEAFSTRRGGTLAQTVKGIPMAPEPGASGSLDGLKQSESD

For orientation: Ki means the dissociation constant of the complex between target and ligand, obtained from inhibition or displacement. Turning to `CCC1C(C)=NN=C(c2ccc(OC)c(OC)c2)c2cc(OC)c(OC)cc21` (racemic) [Racemic tofisopam, Racemic-1-(3,4-dimethoxyphenyl)-4-methyl-5-ethyl-7,8-dimethoxy-5H-2,3-benzodiazepine], the Inflammation score is 2 in experiment [1] (injection site: LTB4 500 ng); 3 and 2 in experiment [1] (injection site: LTB4 1000 ng, listed as (R,S)-tofisopam); 2 and 1 and 3 in experiment [1] (setting [3]); 2 in experiment [1] (injection site: LTB-ap 500 ng); 3 in experiment [1] (injection site: LTB-ap 1000 ng); 2 and 1 in experiment [1] (setting [4]). Besides, the Inflammation score in experiment [1] (injection site: Vehicle 0 ng) worked out at 1. Further, the Edema score in experiment [1] (injection site: LTB4 500 ng, listed as (R,S)-tofisopam) is 2 and 3; in experiment [1] (injection site: LTB4 1000 ng), 3; in experiment [1] (setting [3]) it was 2 and 1 and 3; in experiment [1] (injection site: LTB-ap 500 ng, listed as (R,S)-tofisopam) it was 2 and 3; in experiment [1] (injection site: LTB-ap 1000 ng), 3; in experiment [1] (setting [4]) it was 2 and 1 and 3. Also, the Edema score in experiment [1] (injection site: Vehicle 0 ng, listed as (R,S)-tofisopam) is 2 and 1. For the same compound, the “Histopathology finding: reduction of inflammation and edema” value (from here on “Histopathology finding: reduction”) in experiment [1] was “no meaningful reduction in the inflammation and edema”. In experiment [2], this compound gave a Ki of 4.52 µM.

Consider `CC[C@H]1C(C)=NN=C(c2ccc(OC)c(OC)c2)c2cc(OC)c(OC)cc21` [(R)-tofisopam, (R)-1-(3,4-dimethoxyphenyl)-4-methyl-5-ethyl-7,8-dimethoxy-5H-2,3-benzodiazepine], for which the Edema score was 1 and 3 in experiment [1] (injection site: LTB4 500 ng); 2 and 3 in experiment [1] (injection site: LTB4 1000 ng); 2 and 3 in experiment [1] (injection site: LTB4 2000 ng); 1 and 3 in experiment [1] (injection site: LTB-ap 500 ng); 2 and 3 in experiment [1] (injection site: LTB-ap 1000 ng); 2 and 3 and 1 in experiment [1] (injection site: LTB-ap 2000 ng). Further, the Edema score in experiment [1] (injection site: Vehicle 0 ng) was 0 and 1 and 2. Further, the Inflammation score in experiment [1] (injection site: LTB4 500 ng) was 1; in experiment [1] (injection site: LTB4 1000 ng) it was 1 and 2; in experiment [1] (injection site: LTB4 2000 ng), 1-2 and 1; in experiment [1] (injection site: LTB-ap 500 ng), 1; in experiment [1] (injection site: LTB-ap 1000 ng), 1 and 2; in experiment [1] (injection site: LTB-ap 2000 ng), 1 and 2. Besides, the Inflammation score in experiment [1] (injection site: Vehicle 0 ng) is 0 and 1. Moreover, the “Histopathology finding: reduction” value in experiment [1] was “meaningful reduction in the severity of the inflammatory cell infiltration and less edema”. In experiment [2], this compound showed a Ki of 0.444 µM.

Consider `CC[C@@H]1C(C)=NN=C(c2ccc(OC)c(OC)c2)c2cc(OC)c(OC)cc21` [(S)-tofisopam, (S)-1-(3,4-dimethoxyphenyl)-4-methyl-5-ethyl-7,8-dimethoxy-5H-2,3-benzodiazepine], for which the Edema score was 2 in experiment [1] (injection site: LTB4 500 ng); 3 and 4 in experiment [1] (injection site: LTB4 1000 ng); 2 and 4 in experiment [1] (injection site: LTB4 2000 ng); 2 and 3 in experiment [1] (injection site: LTB-ap 500 ng); 3 and 4 in experiment [1] (injection site: LTB-ap 1000 ng); 2 and 1 and 4 in experiment [1] (injection site: LTB-ap 2000 ng). Moreover, in experiment [1] (injection site: Vehicle 0 ng), the Edema score entry was “T and 1”. In addition, the Inflammation score in experiment [1] (injection site: LTB4 500 ng) was 1 and 2; in experiment [1] (injection site: Vehicle 0 ng) it was “T and 1”. Also, the “Histopathology finding: reduction” value in experiment [1] was “no meaningful reduction in the inflammation and edema”. For the same compound, the Ki in experiment [2] was 76 µM.
